The results in this text go back to ChEMBL document CHEMBL1155683, “Dolastatin 3 and two novel cyclic peptides from a palauan collection of Lyngbya majuscula” (J Nat Prod, 2000).

Test [1] addresses Human immunodeficiency virus type 1 integrase (Human immunodeficiency virus 1) (UniProt Q7ZJM1). Nature of the test: Inhibition of HIV1 integrase long terminal repeat cleavage activity at […].
Test [2] has the same target. As to the kind of experiment: Inhibition of HIV1 integrase strand transfer activity at […].
For test [3], the target named is T1, Human immunodeficiency virus type 1 integrase (Human immunodeficiency virus 1, UniProt Q7ZJM1). As to the kind of experiment: Inhibition of HIV1 integrase long terminal repeat cleavage activity.
T1 sequence (Q7ZJM1 whole entry): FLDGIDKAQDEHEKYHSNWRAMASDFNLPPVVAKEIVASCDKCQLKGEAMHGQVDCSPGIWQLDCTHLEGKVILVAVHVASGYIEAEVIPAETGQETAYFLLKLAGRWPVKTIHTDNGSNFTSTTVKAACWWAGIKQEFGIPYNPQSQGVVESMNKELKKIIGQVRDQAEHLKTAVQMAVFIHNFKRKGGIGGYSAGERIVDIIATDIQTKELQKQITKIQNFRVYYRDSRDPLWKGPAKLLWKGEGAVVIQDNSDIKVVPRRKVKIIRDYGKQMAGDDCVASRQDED
Test [4] addresses T1, Human immunodeficiency virus type 1 integrase. Nature of the test: Inhibition of HIV1 integrase strand transfer activity.

The source made the active and inactive calls. The calls are words filed in the database; no cut-off is given here.

Chain of Human immunodeficiency virus type 1 integrase (Human immunodeficiency virus 1) (Q7ZJM1 as listed by the source): as the sequence (Q7ZJM1 whole entry) above

As for `CCC(C)[C@@H]1NC(=O)c2csc(n2)CNC(=O)c2csc(n2)[C@H](CCC(N)=O)NC(=O)[C@H](CC(C)C)NC(=O)[C@@H]2CCCN2C1=O` (some centres undefined), the result in test [1] and in test [2] was inactive.
As to `CC(C)C[C@@H]1NC(=O)[C@@H]2CCCN2C(=O)[C@H](C(C)C)NC(=O)c2csc(n2)CNC(=O)c2csc(n2)[C@H](CCC(N)=O)NC1=O` [DOLASTATIN 3], the half-maximal inhibitory concentration (IC50) (usually the concentration needed to halve the response being measured) amounted to 5 mM in test [3] and 4.1 mM in test [4].
